Columns and labels:
[1] = biological target: T1, Signal transducer and activator of transcription 1-alpha/beta (Homo sapiens, UniProt P42224); test: Inhibition of IFNgamma-induced STAT1 (unknown origin)
T1 sequence (P42224 whole entry): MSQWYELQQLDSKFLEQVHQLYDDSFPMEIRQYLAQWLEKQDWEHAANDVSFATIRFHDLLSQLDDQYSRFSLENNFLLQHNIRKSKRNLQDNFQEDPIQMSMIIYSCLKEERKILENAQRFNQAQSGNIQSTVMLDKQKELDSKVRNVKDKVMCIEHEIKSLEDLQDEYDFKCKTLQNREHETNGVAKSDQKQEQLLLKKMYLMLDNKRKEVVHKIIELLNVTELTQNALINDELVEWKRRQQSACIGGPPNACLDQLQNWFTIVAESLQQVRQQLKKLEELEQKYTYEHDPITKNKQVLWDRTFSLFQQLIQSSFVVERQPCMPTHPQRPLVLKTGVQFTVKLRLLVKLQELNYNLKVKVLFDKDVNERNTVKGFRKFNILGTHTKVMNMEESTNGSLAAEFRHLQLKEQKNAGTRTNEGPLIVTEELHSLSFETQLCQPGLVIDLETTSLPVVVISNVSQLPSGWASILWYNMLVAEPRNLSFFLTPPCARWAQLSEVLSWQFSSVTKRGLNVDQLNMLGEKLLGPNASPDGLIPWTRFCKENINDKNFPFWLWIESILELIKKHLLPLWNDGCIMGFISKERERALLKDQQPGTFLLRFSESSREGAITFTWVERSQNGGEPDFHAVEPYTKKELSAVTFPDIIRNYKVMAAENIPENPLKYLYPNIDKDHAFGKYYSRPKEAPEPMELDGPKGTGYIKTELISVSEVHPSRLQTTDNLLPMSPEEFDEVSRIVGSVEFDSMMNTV

[2] = Inhibition of IL6-induced STAT3 in human CAL33 cells

IC50 [1]	IC50 [2]	SMILES
> 50 µM	> 50 µM	CC1=Nn2c(nnc2-c2cc(-c3ccccc3)[nH]n2)SC1
> 50 µM		CC1(C)Sc2nnc(-c3[nH]nc4c3CCC4)n2N=C1c1ccc(Cl)c(Cl)c1
	15.5 µM	Clc1ccc(C2=Nn3c(nnc3-c3[nH]nc4c3CCCC4)SC2)cc1Cl
> 50 µM	> 50 µM	C1=Nn2c(nnc2-c2cc(-c3ccccc3)n[nH]2)SC1
	7.5 µM	Fc1ccc(-c2cc(-c3nnc4n3N=C(c3ccc(Cl)c(Cl)c3)CS4)[nH]n2)cc1
> 50 µM	> 50 µM	CC1=Nn2c(nnc2-c2[nH]nc3c2CCC3)SC1
> 50 µM	> 50 µM	C1=Nn2c(nnc2-c2[nH]nc3c2CCC3)SC1
> 50 µM		COc1ccc(C2=Nn3c(nnc3-c3[nH]nc4c3CCC4)SC2C(C)C)cc1 (stereo not drawn)
> 30 µM		CC1Sc2nnc(-c3cc(-c4ccc(F)cc4)n[nH]3)n2N=C1c1ccccc1 (stereo not drawn)
	> 50 µM	COc1ccc(C2CSc3nnc(-c4[nH]nc5c4CCC5)n3N2)cc1 (stereo not drawn)
> 30 µM		COc1ccc(C2=Nn3c(nnc3-c3cc(-c4ccc(F)cc4)n[nH]3)SC2C)cc1 (stereo not drawn)
> 50 µM		Clc1ccc(C2=Nn3c(nnc3-c3[nH]nc4c3CCC4)SC2Cc2ccccc2)cc1Cl (stereo not drawn)
> 50 µM		c1ccc(C2=Nn3c(nnc3-c3[nH]nc4c3CCC4)SC2)cc1
> 50 µM		COc1ccc(C2=Nn3c(nnc3-c3cc(-c4ccccc4)n[nH]3)SC2CC(C)C)cc1 (stereo not drawn)
> 50 µM	3.7 µM	COc1ccc(C2=Nn3c(nnc3-c3cc(-c4ccccc4)n[nH]3)SC2)cc1
> 50 µM		Clc1ccc(C2=Nn3c(nnc3-c3[nH]nc4c3CCC4)SC2)s1
> 50 µM		Clc1ccc(C2=Nn3c(nnc3-c3[nH]nc4c3CCC4)SC2)cc1Cl

IC50 [1]	IC50 [2]	SMILES
> 50 µM	> 50 µM	c1cc(C2=Nn3c(nnc3-c3[nH]nc4c3CCC4)SC2)ccn1
> 50 µM		c1ccc(C2=Nn3c(nnc3-c3cc(-c4ccccc4)[nH]n3)SC2)cc1
> 50 µM		Clc1ccc(C2=Nn3c(nnc3-c3cc(-c4ccccc4)[nH]n3)SC2)cc1 [MLS000558549]
> 50 µM		CC1Sc2nnc(-c3[nH]nc4c3CCC4)n2N=C1c1ccc(Cl)c(Cl)c1 (stereo not drawn)
> 50 µM		COc1ccc(C2=Nn3c(nnc3-c3[nH]nc4c3CCC4)SC2C)cc1 (stereo not drawn)
	14.5 µM	Clc1ccc(-c2cc(-c3nnc4n3N=C(c3ccc(Cl)c(Cl)c3)CS4)[nH]n2)cc1
> 50 µM		CC(C)CC1Sc2nnc(-c3[nH]nc4c3CCC4)n2N=C1c1ccc(Cl)c(Cl)c1 (stereo not drawn)
> 50 µM		Clc1cccc(C2=Nn3c(nnc3-c3[nH]nc4c3CCC4)SC2)c1
> 50 µM		Clc1ccc(C2=Nn3c(nnc3-c3[nH]nc4c3CCC4)SC2)cc1
> 50 µM	> 50 µM	c1ccc(-c2cc(-c3nnc4n3N=C(c3ccncc3)CS4)[nH]n2)cc1
> 50 µM		CC(C)C1Sc2nnc(-c3[nH]nc4c3CCC4)n2N=C1c1ccc(Cl)c(Cl)c1 (stereo not drawn)
> 50 µM	> 50 µM	c1ccc(-c2cc(-c3nnc4n3N=C(C3CCCCC3)CS4)[nH]n2)cc1
> 50 µM		Clc1ccc(C2=Nn3c(nnc3-c3cc(-c4ccccc4)n[nH]3)SC2)cc1Cl
> 50 µM	> 50 µM	Clc1ccc(C2=Nn3c(nnc3-c3cc(-c4ccccc4)n[nH]3)SC2)s1
> 50 µM	> 30 µM	C1CCC(C2=Nn3c(nnc3-c3[nH]nc4c3CCC4)SC2)CC1
	> 50 µM	COc1ccc(C2CSc3nnc(-c4cc(-c5ccccc5)n[nH]4)n3N2C(C)=O)cc1 (stereo not drawn)

Reference: BindingDB's records for doi:10.1016/j.bmcl.2016.06.017 (University of Pittsburgh, 2016)
